Experimental data taken from patent publication US20120190752A1, “EXO-S-MECAMYLAMINE METHOD, USE, AND COMPOUND FOR TREATMENT” (Targacept Inc., priority 2009, published 2012).

System: subjects with major depressive disorder (MDD) who were inadequate responders to citalopram
Assay: CGI-SI (Clinical Global Impression-Severity of Illness), Phase 2b add-on trial
Format: in vivo, human
Text: The Clinical Global Impression rating scales are commonly used measures of symptom severity, treatment response and the efficacy of treatments in treatment studies of patients with mental disorders (Guy, W., 1976). The Clinical Global Impression—Severity scale (CGI-S) is a 7-point scale that requires the clinician to rate the severity of the patient's illness at the time of assessment, relative to the clinician's past experience with patients who have the same diagnosis. Considering total clinical experience, a patient is assessed on severity of mental illness at the time of rating. In more detail, a multi-center double-blind, randomized, placebo-controlled, parallel group, flexible dose titration study of TC-5214 as adjunctive therapy in subjects with major depressive disorder (MDD) who were inadequate responders to citalopram was conducted in centers in the US and India. The study consisted of a screening period, baseline/washout period, open-label phase, double-blind phase, and a follow-up visit. Subject participation in the study could continue for up to 16 weeks of treatment. Following a washout period of up to 28 days for other antidepressants, subjects with MDD and a MADRS total score >/=28 and a Clinical Global Impression-Severity (CGI-S) score >/=4 were enrolled on Day 1 into an open-label citalopram-only phase of the study. This phase lasted 8 weeks, with citalopram (CIT) dose increased from a once-daily dose of 20 mg (Day 1 through Week 4) to 40 mg (Week 4 through Week 8). A total of 579 subjects entered the open-label citalopram phase. At Week 8, subjects who tolerated 40 mg CIT, but whose MADRS score was reduced <50% from baseline and no lower than 17, and CGI-S≧4, were considered inadequate responders. These subjects (n=270) were randomized in a double-blind fashion to receive either placebo or TC-5214-23 as add-on therapy to continued CIT. The double-blind phase of the study also lasted 8 weeks (Week 8 to Week 16). Study drug, TC-5214-23 or placebo, was started at 2 mg daily (1 mg twice per day [BID] dosing), added on to continuing CIT (40 mg PO qd). After 2 weeks of treatment, the dose of TC-5214 could be increased to 4 mg (2 mg BID) or continued unchanged, with up-titration based upon good tolerability and inadequate therapeutic response. After a further 2 weeks, the dose of TC-5214 could be increased again to 8 mg (4 mg BID) if judged appropriate by the investigator, based upon good tolerability and inadequate therapeutic response. At any time during the double-blind phase of the study, placebo or TC-5214-23 could be reduced to the previous dose level following the emergence of unacceptable adverse events (AEs). […] At this follow-up, any signs or symptoms of relapse were evaluated. If a subject was prematurely discontinued from the study between Week 8 and Week 16 for any reason, the investigator was to make every effort to perform all evaluations as per protocol, assuming the subject had reached the end of the double-blind add-on treatment phase. These evaluations were to be made as soon as possible and within 2 weeks of discontinuation. […] There was no meaningful difference in results as a function of age, gender, site, or smoking status. With regard to efficacy endpoints, the following tables present efficacy used in the ITT (Intent-to-Treat) and PP (Per Protocol) populations unless otherwise specific. The primary inference was based upon Week 16 visit using the ITT population. Change from baseline was obtained by subtracting the baseline values from the individual on-treatment values. Change from Week 16 was obtained by subtracting the Week 16 values from the individual follow-up visit (Week 18/19) values. If either the baseline or Week 16 or on-treatment or follow-up value was missing, the change from baseline or Week 16 value was also set to missing. […]

[1] = ITT, Double Blind Week 18 LOCF (Follow-up), change from Week 16
[2] = PP, Double Blind Week 16 LOCF (change from Week 8)
[3] = PP, Double Blind Week 18 LOCF (Follow-up), change from Week 16

CNC1(C)C2CCC(C2)C1(C)C (stereo in doubt) [TC-5214, (S)—N,2,3,3-tetramethylnorbornan-2-amine]
CGI-SI score change from baseline compared with placebo (ITT and PP populations, result in words): statistically significant decreases (improvements)
CGI-SI Mean Difference between TC-5214 and Placebo (ITT, Double Blind Week 16 LOCF (change from Week 8)): 0.87
CGI-SI Adjusted Mean change [1]: −0.05
CGI-SI Mean Difference between TC-5214 and Placebo [1]: 0.01
CGI-SI Difference vs Placebo + CIT (ITT, Week 8 to Week 16 LOCF): −0.87
CGI-SI Adj. Mean change (ITT, change from Week 8 (double-blind baseline) to Week 16 LOCF, add-on to citalopram): −1.79
CGI-SI Adjusted Mean change [2]: −2.00
CGI-SI Mean Difference between TC-5214 and Placebo [2]: 0.92
CGI-SI Adjusted Mean change [3]: −0.07
CGI-SI Mean Difference between TC-5214 and Placebo [3]: 0.05
